9 compounds from ChEMBL document CHEMBL1130923, “Synthesis and biological activity of 2-methyl-20-epi analogues of 1 alpha,25-dihydroxyvitamin D3” (1998) can be followed below.

In experiment [1] the target is T1, Vitamin D3 receptor (Bos taurus) (UniProt Q28037).
T1 sequence (whole entry): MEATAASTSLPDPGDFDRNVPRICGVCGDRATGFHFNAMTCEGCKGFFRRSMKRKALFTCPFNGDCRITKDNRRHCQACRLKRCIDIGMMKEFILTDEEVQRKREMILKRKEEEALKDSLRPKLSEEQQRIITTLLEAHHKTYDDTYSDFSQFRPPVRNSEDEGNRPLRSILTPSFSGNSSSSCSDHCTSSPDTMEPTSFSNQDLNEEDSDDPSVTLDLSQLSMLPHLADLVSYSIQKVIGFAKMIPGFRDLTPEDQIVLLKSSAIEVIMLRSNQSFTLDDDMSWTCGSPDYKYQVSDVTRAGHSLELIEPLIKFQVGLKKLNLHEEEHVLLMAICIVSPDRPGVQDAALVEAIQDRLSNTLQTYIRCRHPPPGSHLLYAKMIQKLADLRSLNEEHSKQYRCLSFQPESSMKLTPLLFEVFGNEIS
The experiment is described as follows: Affinity for bovine thymus VDR vitamin D receptor.

The next experiment relates to HL-60. The experiment is described as follows: Cell differentiation activity towards HL-60 cells was assessed in terms of NTB reactivity. It counts as functional, Homo sapiens.
The next experiment is filed under the species Rattus norvegicus. The experiment in a line: Bone calcium mobilization was tested on normal SD male rats and serum calcium level was reported. The format is functional. Set-up: unit not given beside the values.

With `C=C1/C(=C\C=C2/CCC[C@]3(C)[C@@H]([C@H](C)CCCC(C)(C)O)CC[C@@H]23)C[C@@H](O)[C@H](C)[C@H]1O`, the Activity in experiment [1] was below 0.1; with HL-60 it was 3.

Regarding `C=C1/C(=C\C=C2/CCC[C@]3(C)[C@@H]([C@H](C)CCCC(C)(C)O)CC[C@@H]23)C[C@H](O)[C@@H](C)[C@H]1O`, the Activity was 7 in experiment [1], 190 in the experiment with HL-60 and 19 in the experiment listed under Rattus norvegicus.

For the compound `C=C1/C(=C\C=C2/CCC[C@]3(C)[C@@H]([C@H](C)CCCC(C)(C)O)CC[C@@H]23)C[C@@H](O)C[C@@H]1O` [CALCITRIOL], the Activity (in experiment [1]; in the experiment on HL-60; in the experiment filed under Rattus norvegicus) was 100 in each case.

For `C=C1/C(=C\C=C2/CCC[C@]3(C)[C@@H]([C@H](C)CCCC(C)(C)O)CC[C@@H]23)C[C@@H](O)[C@@H](C)[C@@H]1O`, the Activity in experiment [1] was found to be 160; in the experiment on HL-60, 2600; in the experiment filed under Rattus norvegicus it was 115.

As for `C=C1/C(=C\C=C2/CCC[C@]3(C)[C@@H]([C@H](C)CCCC(C)(C)O)CC[C@@H]23)C[C@@H](O)[C@@H](C)[C@H]1O`, the Activity in experiment [1] was below 0.1; in the experiment with HL-60, 1.

`C=C1/C(=C\C=C2/CCC[C@]3(C)[C@@H]([C@H](C)CCCC(C)(C)O)CC[C@@H]23)C[C@H](O)[C@H](C)[C@@H]1O`: the Activity in experiment [1] was 17; in the experiment on HL-60, 730; in the experiment filed under Rattus norvegicus it was 144.

As for `C=C1/C(=C\C=C2/CCC[C@]3(C)[C@@H]([C@H](C)CCCC(C)(C)O)CC[C@@H]23)C[C@@H](O)[C@H](C)[C@@H]1O`, the Activity amounted to 1200 in experiment [1], 59000 in the experiment with HL-60 and 655 in the experiment filed under Rattus norvegicus.

Turning to `C=C1/C(=C\C=C2/CCC[C@]3(C)[C@@H]([C@H](C)CCCC(C)(C)O)CC[C@@H]23)C[C@H](O)[C@@H](C)[C@@H]1O`, the results for the Activity (in experiment [1]; with HL-60) were below 0.1 and 6, respectively.

In the case of `C=C1/C(=C\C=C2/CCC[C@]3(C)[C@@H]([C@H](C)CCCC(C)(C)O)CC[C@@H]23)C[C@H](O)[C@H](C)[C@H]1O`, the Activity was below 0.1 in experiment [1] and 1 in the experiment on HL-60.
